In brackets after ≈: the same amount, converted by molar mass.
How the values were obtained:
[1] = system: Clostridium difficile ATJ ribotype 014/20; experiment: MIC, plate drop assay, C. difficile ATJ ribotype 014/20; type: cell-based; conditions: for MIC-fold improvement vs. vancomycin: C. difficile ATJ ribotype 014/20
Procedure: (§1) Bacterial lawns of both C. difficile strains were prepared by adding 0.5 mL overnight culture to 8 mL sloppy BHI agar (0.4% agar) supplemented with 1.5 g/L CaCl2⋅2H2O and 81.2 g/L MgCl2⋅6H2O, and pouring the mixture into Petri plates. A twofold dilution series of the selected vancomycin analogs, vancomycin ([…]) and daptomycin (25 μM) was spotted (10 μL) on the bacterial lawn. Spots were air-dried and the plates were incubated overnight at 37°C in an anaerobic cabinet. Ultrapure water was included as negative control. The assay was performed in triplicate. Inhibition was observed by cleared spots.

E. faecalis VRE 53 = experiment: MIC, broth microdilution, vancomycin-resistant E. faecalis VRE 53 (VanA); type: cell-based, Enterococcus faecalis; conditions: for MIC: Enterococcus faecalis VRE 53 (vancomycin-resistant), read-out: MIC; for MIC-fold improvement vs. vancomycin: VRE 53, ratio of MIC of vancomycin and MIC of analogue
Outline: (§2)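 MIC values come from broth microdilution run to CLSI susceptibility-testing standards. Ultrapure water and uninoculated broth served as controls. In one series, vancomycin at a final 10 μM was co-dosed with the analogue or comparator antibiotic.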

MRSA KS2 = experiment: MIC, broth microdilution, MRSA KS2; type: cell-based, Staphylococcus aureus; conditions: for MIC-fold improvement vs. vancomycin: MRSA KS2, ratio of MIC of vancomycin and MIC of analogue; for MIC: Staphylococcus aureus MRSA KS2, read-out: MIC
Outline: as §2

MRSA KS1 = experiment: MIC, broth microdilution, MRSA KS1; type: cell-based, Staphylococcus aureus; conditions: for MIC-fold improvement vs. vancomycin: MRSA KS1, ratio of MIC of vancomycin and MIC of analogue; for MIC: Staphylococcus aureus MRSA KS1, read-out: MIC
Outline: as §2

S. aureus VRSA = experiment: MIC, broth microdilution, vancomycin-resistant S. aureus (VRSA); type: cell-based, Staphylococcus aureus; conditions: for MIC: Staphylococcus aureus VRSA, read-out: MIC; for MIC-fold improvement vs. vancomycin: VRSA, ratio of MIC of vancomycin and MIC of analogue
Outline: as §2

E. faecalis VRE 29 = experiment: MIC, broth microdilution, vancomycin-resistant E. faecalis VRE 29 (VanA); type: cell-based, Enterococcus faecalis; conditions: for MIC: Enterococcus faecalis VRE 29 (vancomycin-resistant), read-out: MIC; for MIC-fold improvement vs. vancomycin: VRE 29, ratio of MIC of vancomycin and MIC of analogue
Outline: as §2

MRSA KS6 = experiment: MIC, broth microdilution, MRSA KS6; type: cell-based, Staphylococcus aureus; conditions: for MIC-fold improvement vs. vancomycin: MRSA KS6, ratio of MIC of vancomycin and MIC of analogue; for MIC: Staphylococcus aureus MRSA KS6, read-out: MIC
Outline: as §2

S. aureus VISA/HIP5827 = experiment: MIC, broth microdilution, vancomycin-intermediate S. aureus VISA HIP5827; type: cell-based, Staphylococcus aureus; conditions: for MIC: Staphylococcus aureus VISA/HIP5827, read-out: MIC; for MIC-fold improvement vs. vancomycin: VISA/HIP5827, ratio of MIC of vancomycin and MIC of analogue
Outline: as §2

E. faecalis VRE 37 = experiment: MIC, broth microdilution, vancomycin-resistant E. faecalis VRE 37 (VanA); type: cell-based, Enterococcus faecalis; conditions: for MIC: Enterococcus faecalis VRE 37 (vancomycin-resistant), read-out: MIC; for MIC-fold improvement vs. vancomycin: VRE 37, ratio of MIC of vancomycin and MIC of analogue
Outline: as §2

MRSA KS89 = experiment: MIC, broth microdilution, MRSA KS89; type: cell-based, Staphylococcus aureus; conditions: for MIC-fold improvement vs. vancomycin: MRSA KS8, ratio of MIC of vancomycin and MIC of analogue; for MIC: Staphylococcus aureus MRSA KS8, read-out: MIC
Outline: as §2

[2] = system: Murine leukemia (L1210) cells; experiment: Cytostatic activity, L1210 cell proliferation; type: cell-based; conditions: mean ± SD of three experiments; highest concentration tested 250 µM; 2 days; read-out: Toxicity (IC50) L1210
Outline: (§3)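 Coulter counter cell counts after 37°C culture with compound; IC50 = concentration giving 50% growth inhibition vs negative control. Incubation: L1210 2 d, CEM 3 d, HeLa 4 d. Suspension density before mixing with an equal volume of dilution: 300,000–500,000 cells/mL.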

[3] = system: Clostridium difficile AIU ribotype 027; experiment: MIC, plate drop assay, C. difficile AIU ribotype 027; type: cell-based; conditions: for MIC-fold improvement vs. vancomycin: C. difficile AIU ribotype 027
Procedure: as §1

[4] = system: human cervix carcinoma (HeLa) cells; experiment: Cytostatic activity, HeLa cell proliferation; type: cell-based; conditions: mean ± SD of three experiments; highest concentration tested 250 µM; 4 days; read-out: Toxicity (IC50) HeLa
Outline: as §3

[5] = system: human T-lymphocyte (CEM) cells; experiment: Cytostatic activity, CEM cell proliferation; type: cell-based; conditions: mean ± SD of three experiments; highest concentration tested 250 µM; 3 days; read-out: Toxicity (IC50) CEM
Outline: as §3

E. faecalis VRE 6 = experiment: MIC, broth microdilution, vancomycin-resistant E. faecalis VRE 6 (VanA); type: cell-based, Enterococcus faecalis; conditions: for MIC: Enterococcus faecalis VRE 6 (vancomycin-resistant), read-out: MIC; for MIC-fold improvement vs. vancomycin: VRE 6, ratio of MIC of vancomycin and MIC of analogue
Outline: as §2

[6] = system: S. aureus VSSA (ATCC 6538); experiment: MIC, broth microdilution, vancomycin-sensitive S. aureus (VSSA/MSSA, ATCC 6538); type: cell-based, Staphylococcus aureus; conditions: for MIC: Staphylococcus aureus VSSA, read-out: MIC; for MIC-fold improvement vs. vancomycin: VSSA, ratio of MIC of vancomycin and MIC of analogue
Outline: as §2

[7] = system: L1210, CEM and HeLa cell lines; experiment: Cytostatic activity, average or summary over L1210, CEM and HeLa; type: cell-based; conditions: average of L1210, CEM and HeLa; read-out: Toxicity (IC50) Average
Outline: as §3

E. faecalis VSE 1 = experiment: MIC, broth microdilution, vancomycin-sensitive E. faecalis (VSE 1); type: cell-based, Enterococcus faecalis; conditions: for MIC: Enterococcus faecalis VSE 1 (vancomycin-sensitive), read-out: MIC; for MIC-fold improvement vs. vancomycin: VSE 1, ratio of MIC of vancomycin and MIC of analogue
Outline: as §2

Row | Structure (SMILES) | MIC-fold improvement vs. vancomycin [1] | MIC (E. faecalis VRE 53) | MIC-fold improvement vs. vancomycin (E. faecalis VRE 53) | MIC-fold improvement vs. vancomycin (MRSA KS2) | MIC (MRSA KS2) | MIC-fold improvement vs. vancomycin (MRSA KS1) | MIC (MRSA KS1) | MIC (S. aureus VRSA) | MIC-fold improvement vs. vancomycin (S. aureus VRSA) | MIC (E. faecalis VRE 29) | MIC-fold improvement vs. vancomycin (E. faecalis VRE 29) | MIC-fold improvement vs. vancomycin (MRSA KS6) | MIC (MRSA KS6) | MIC (S. aureus VISA/HIP5827) | MIC-fold improvement vs. vancomycin (S. aureus VISA/HIP5827) | MIC (E. faecalis VRE 37) | MIC-fold improvement vs. vancomycin (E. faecalis VRE 37) | MIC-fold improvement vs. vancomycin (MRSA KS89) | MIC (MRSA KS89) | IC50 [2] | other results
1 | CNC(CC(C)C)C(=O)NC1C(=O)NC(CC(N)=O)C(=O)NC2C(=O)NC3C(=O)NC(C(=O)NC(C(=O)NCCCNC(=O)c4ccc(-c5ccc(F)cc5)cc4)c4cc(O)cc(O)c4-c4cc3ccc4O)C(O)c3ccc(c(Cl)c3)Oc3cc2cc(c3OC2OC(CO)C(O)C(O)C2OC2CC(C)(N)C(O)C(C)O2)Oc2ccc(cc2Cl)C1O (centres unmarked) [Vanc-34] | 22 | 12.5 µM (≈ 21.3 µg/mL) | 32 | 8 | 0.10 µM (≈ 0.17 µg/mL) | 4 | 0.20 µM (≈ 0.341 µg/mL) | 0.78 µM (≈ 1.33 µg/mL) | 128 | 3.13 µM (≈ 5.33 µg/mL) | 128 | 4 | 0.20 µM (≈ 0.341 µg/mL) | 0.10 µM (≈ 0.17 µg/mL) | 64 | 6.25 µM (≈ 10.6 µg/mL) | 64 | 4 | 0.20 µM (≈ 0.341 µg/mL) | 42 ± 7 µM | MIC ([1]; C. difficile ATJ ribotype 014/20, plate drop assay): 1.56 µM (≈ 2.66 µg/mL); MIC-fold improvement vs. vancomycin [3]: 29; MIC ([3]; C. difficile AIU ribotype 027, plate drop assay): 1.56 µM (≈ 2.66 µg/mL); IC50 [4]: 110 ± 8 µM; IC50 [5]: 34 ± 2 µM; MIC (E. faecalis VRE 6): 0.39 µM (≈ 0.664 µg/mL); MIC-fold improvement vs. vancomycin (E. faecalis VRE 6): 513; MIC [6]: 0.10 µM (≈ 0.17 µg/mL); MIC-fold improvement vs. vancomycin [6]: 8; IC50 [7]: 62 µM; MIC (E. faecalis VSE 1): 0.20 µM (≈ 0.341 µg/mL); MIC-fold improvement vs. vancomycin (E. faecalis VSE 1): 8
2 | CN[C@H](CC(C)C)C(=O)N[C@H]1C(=O)N[C@@H](CC(N)=O)C(=O)N[C@H]2C(=O)N[C@H]3C(=O)N[C@H](C(=O)N[C@H](C(=O)NCC(=O)Nc4ccc(Nc5ccccc5)cc4)c4cc(O)cc(O)c4-c4cc3ccc4O)[C@H](O)c3ccc(c(Cl)c3)Oc3cc2cc(c3O[C@@H]2O[C@H](CO)[C@@H](O)[C@H](O)[C@H]2O[C@H]2C[C@](C)(N)[C@H](O)[C@H](C)O2)Oc2ccc(cc2Cl)[C@H]1O [Vanc-43] | 22 | 25 µM (≈ 41.8 µg/mL) | 16 | 2 | 0.39 µM (≈ 0.652 µg/mL) | 2 | 0.39 µM (≈ 0.652 µg/mL) | 1.56 µM (≈ 2.61 µg/mL) | 64 | 6.25 µM (≈ 10.5 µg/mL) | 64 | 0.25 | 3.13 µM (≈ 5.24 µg/mL) | 1.56 µM (≈ 2.61 µg/mL) | 4 | 6.25 µM (≈ 10.5 µg/mL) | 64 | 2 | 0.39 µM (≈ 0.652 µg/mL) | > 250 µM | MIC-fold improvement vs. vancomycin [3]: 29; IC50 [4]: > 250 µM; IC50 [5]: > 250 µM; MIC (E. faecalis VRE 6): 1.56 µM (≈ 2.61 µg/mL); MIC-fold improvement vs. vancomycin (E. faecalis VRE 6): 128; MIC [6]: 0.39 µM (≈ 0.652 µg/mL); MIC-fold improvement vs. vancomycin [6]: 2; IC50 [7]: > 250 µM; MIC (E. faecalis VSE 1): 0.39 µM (≈ 0.652 µg/mL); MIC-fold improvement vs. vancomycin (E. faecalis VSE 1): 4

Source: publication PMC6001238, “Iterative Chemical Engineering of Vancomycin Leads to Novel Vancomycin Analogs With a High in Vitro Therapeutic Index” (Frontiers in Microbiology, 2018)
